Measurements taken from patent US11236367B2, “Fatty acid decarboxylase and its uses” (COMMISSARIAT A L'ENERGIE ATOMIQUE ET AUX ENERGIES …, priority 2016, dated 2022).

Assays:
Format in all cases: biochemical, Chlorella variabilis NC64A
[1] = target: T1, Chlorella GMC oxidoreductase (Chlorella variabilis, UniProt A0A248QE08); assay: 13CO2 release from 1-13C-palmitate with the purified enzyme (membrane inlet mass spectrometry); conditions: palmitic acid labelled with 13C on the carboxylic group
T1 construct: 6 His-tagged thioredoxin (N, cleaved yes); TEV protease-cleavage site (N, cleaved yes); made in house; host or cells: E. coli BL21-CodonPlus (DE3)-RIL
T1 sequence (A0A248QE08 62-654): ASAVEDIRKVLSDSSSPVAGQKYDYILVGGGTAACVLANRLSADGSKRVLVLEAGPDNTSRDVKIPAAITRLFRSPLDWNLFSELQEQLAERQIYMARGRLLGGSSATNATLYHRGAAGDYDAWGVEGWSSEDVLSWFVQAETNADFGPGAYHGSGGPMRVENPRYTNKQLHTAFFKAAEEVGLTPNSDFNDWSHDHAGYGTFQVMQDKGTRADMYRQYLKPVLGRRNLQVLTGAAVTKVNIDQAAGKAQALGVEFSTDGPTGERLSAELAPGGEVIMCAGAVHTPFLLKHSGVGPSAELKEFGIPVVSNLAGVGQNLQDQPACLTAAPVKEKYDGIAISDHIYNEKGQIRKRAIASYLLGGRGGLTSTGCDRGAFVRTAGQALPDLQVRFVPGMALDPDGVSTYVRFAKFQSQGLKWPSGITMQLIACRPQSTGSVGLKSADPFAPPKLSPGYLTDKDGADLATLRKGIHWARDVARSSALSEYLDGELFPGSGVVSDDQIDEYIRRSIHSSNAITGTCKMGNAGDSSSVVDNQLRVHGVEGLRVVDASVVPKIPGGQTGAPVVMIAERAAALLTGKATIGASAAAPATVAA
Experimental: All assays were performed in transparent glass vials sealed using caps with septum. Optimum pH was determined using a Teorell Stenhagen universal buffer (33 mM citric acid monohydrate, 33 mM phosphoric acid, 100 mM NaOH, 16.7 mM of boric acid, pH 8.5 adjusted with 1N HCl). Other assays were performed in 100 mM Tris HCl pH 8.5, 100 mM NaCl. Reaction mixtures (500 μL) typically contained 160 nM purified enzyme (stock ? solution 2.5 mg ml^−1) and 400 μM substrate (stock solution 10 mM in ethanol). In some assays, a lipase was used with the alkane synthase. In this case, substrate was a triacylglycerol. Generally, samples were shaken at 200 rpm during 15 min under LED-made white light at 2000 μmol ? photons m^−2s^−1. After the incubations, samples were heated at 95° C. during 15 min to stop the enzymatic reaction. Samples were cooled down and internal standard (hexadecane) was added (45 nmol from a 4.5 mM stock solution in chloroform). NaOH was then added to the reaction mixture (10 μL from a stock solution of 10 M) and samples were vortexed for 5 min. […] The hexane phase was collected by centrifugation and analyzed by GC-MS-FID. […] In FIG. 11 activity on 1-^13C-palmitate was monitored by release of ^13CO2 using membrane inlet mass spectrometry. […]
Online measurements of ^12CO2 (m/z=44) and ^13CO2 (m/z=45) were monitored using mass spectrometry (model Prima B, Thermo Scientific). […]

[2] = target: T1, Chlorella GMC oxidoreductase; assay: Enzymatic assay with purified recombinant enzyme (GC-MS of products); conditions: for conversion of substrate by the enzyme (product formed): purified recombinant enzyme, white light
Experimental: All assays were performed in transparent glass vials sealed using caps with septum. Optimum pH was determined using a Teorell Stenhagen universal buffer (33 mM citric acid monohydrate, 33 mM phosphoric acid, 100 mM NaOH, 16.7 mM of boric acid, pH 8.5 adjusted with 1N HCl). Other assays were performed in 100 mM Tris HCl pH 8.5, 100 mM NaCl. Reaction mixtures (500 μL) typically contained 160 nM purified enzyme (stock ? solution 2.5 mg ml^−1) and 400 μM substrate (stock solution 10 mM in ethanol). In some assays, a lipase was used with the alkane synthase. In this case, substrate was a triacylglycerol. Generally, samples were shaken at 200 rpm during 15 min under LED-made white light at 2000 μmol ? photons m^−2s^−1. After the incubations, samples were heated at 95° C. during 15 min to stop the enzymatic reaction. Samples were cooled down and internal standard (hexadecane) was added (45 nmol from a 4.5 mM stock solution in chloroform). NaOH was then added to the reaction mixture (10 μL from a stock solution of 10 M) and samples were vortexed for 5 min. Then 250 μL of hexane was added and samples were vortexed for 5 min to extract alkanes and alkenes. The hexane phase was collected by centrifugation and analyzed by GC-MS-FID. The analysis was done by direct injection of 100 μl of the headspace into a GC-MS. In FIG. 11 activity on 1-^13C-palmitate was monitored by release of ^13CO2 using membrane inlet mass spectrometry. Illuminations were provided by CBT-120 LEDs (Luminous, Billerica) either blue (peak at 460 nm, 25 nm FWHM), or red (peak at 635 nm, 15 nm FWHM) at an intensity of 850 μmol photons m^−2 s^−1.

[3] = target: T2, alkane synthase activity of Chlorella homogenate (Chlorella variabilis, UniProt A0A248QE08); assay: Alkane synthase activity assay on Chlorella homogenate and purification fractions (SPME, GC-MS); conditions: for effect of added co-factor on alkane synthase activity: added in different combinations to the solubilized microsomal fraction
T2 construct: Reaction mixtures contained 500 μL of each purification fraction; endogenous in cells; host or cells: Chlorella cells (homogenate, solubilized microsomal fraction, chromatography fractions)
T2 sequence (A0A248QE08 61-654 limits assumed): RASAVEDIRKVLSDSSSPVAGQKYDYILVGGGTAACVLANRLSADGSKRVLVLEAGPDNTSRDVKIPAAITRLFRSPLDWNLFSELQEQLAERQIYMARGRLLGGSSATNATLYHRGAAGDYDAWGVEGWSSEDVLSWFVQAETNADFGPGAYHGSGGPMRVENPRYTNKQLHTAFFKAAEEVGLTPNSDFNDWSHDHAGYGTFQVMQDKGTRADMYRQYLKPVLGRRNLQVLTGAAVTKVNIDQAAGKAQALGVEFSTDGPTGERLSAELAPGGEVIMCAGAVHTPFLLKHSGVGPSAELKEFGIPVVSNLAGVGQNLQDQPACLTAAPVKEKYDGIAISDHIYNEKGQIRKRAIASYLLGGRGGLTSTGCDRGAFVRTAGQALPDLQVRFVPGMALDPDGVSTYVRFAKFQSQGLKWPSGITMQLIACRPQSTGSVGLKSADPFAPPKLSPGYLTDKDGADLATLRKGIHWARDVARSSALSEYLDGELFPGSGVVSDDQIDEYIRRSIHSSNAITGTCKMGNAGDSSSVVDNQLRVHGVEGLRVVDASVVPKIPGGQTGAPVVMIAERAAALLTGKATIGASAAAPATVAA
Experimental: Enzymatic assays were performed in transparent glass vials sealed using caps with septum. Reaction mixtures contained 500 μL of each purification fraction, 200 μM of perdeuterated palmitic acid (10 mM stock solution in ethanol) and 45 nmol hexadecane as internal standard (4.5 mM stock solution in chloroform). Vials were agitated at 120 rpm overnight at 25° C. under a white light (intensity 120 μmol photons m^−2s^−1). Reaction was stopped by the addition of 10 μL NaOH 10 M through the septum using a syringe. Hydrocarbons produced were analyzed by incubating in the headspace of the vial a solid phase microextraction (SPME) fiber (DVB PDMS fused silica, 65 μm double-polar, Supelco) mounted on a holder. After 15 min incubation at room temperature the SPME fiber was immediately inserted into the injector of the GC-MS and desorbed at 250° C. GC-MS analysis was carried out as described below.

Structure (SMILES) | conversion of substrate by the enzyme (product formed) [2] | effect of added co-factor on alkane synthase activity [3] | further results
CCCCCCCCCCCCCCC[13C](=O)O [1-^13C-palmitate, reference compound] | – | – | co-product released from labelled substrate [1]: production of ^13CO2
O=C(O)CCCCCCCCCCCCCCCO [16-OH palmitic acid] | production of pentadecanol | – | –
Nc1ncnc2c1ncn2[C@@H]1O[C@H](COP(=O)(O)OP(=O)(O)OP(=O)(O)O)[C@@H](O)[C@H]1O [ATP] | – | None of them were found to increase the activity | –
[2H]C([2H])([2H])C([2H])([2H])C([2H])([2H])C([2H])([2H])C([2H])([2H])C([2H])([2H])C([2H])([2H])C([2H])([2H])C([2H])([2H])C([2H])([2H])C([2H])([2H])C([2H])([2H])C([2H])([2H])C([2H])([2H])C([2H])([2H])C(=O)O [Deuterated palmitic acid, perdeuterated (D31) palmitic acid] | – | – | formation of labelled pentadecane from labelled substrate ([3]; Chlorella cell homogenate, overnight incubation in sealed vial): labelled pentadecane could be detected
NC(=O)C1=CN([C@@H]2O[C@H](COP(=O)(O)OP(=O)(O)OC[C@H]3O[C@@H](n4cnc5c(N)ncnc54)[C@H](OP(=O)(O)O)[C@@H]3O)[C@@H](O)[C@H]2O)C=CC1 [NADPH] | – | None of them were found to increase the activity | –
NC(=O)c1ccc[n+]([C@@H]2O[C@H](COP(=O)([O-])OP(=O)(O)OC[C@H]3O[C@@H](n4cnc5c(N)ncnc54)[C@H](OP(=O)(O)O)[C@@H]3O)[C@@H](O)[C@H]2O)c1 [NADP] | – | None of them were found to increase the activity | –
CC(C)CCCC(C)CCCC(C)CCCC(C)CC(=O)O (stereo not drawn) [Phytanic acid, 3,7,11,15-tetramethylhexadecanoic acid] | converted into branched alkanes | – | –
CCCCCCCCCCCCCCCCC(=O)OCC(COC(=O)CCCCCCCCCCCCCCCC)OC(=O)CCCCCCCCCCCCCCCC [TAGs, glyceryl triheptadecanoate] | cannot use TAGs (triacylglycerol) directly as substrate | – | conversion of substrate by the enzyme in presence of a TAG lipase ([2]; purified enzyme plus TAG lipase): production of hydrocarbons is observed
